Laboratory results from the supplement of paper PMC10307832.

Tests used:
Assay in all cases: relative viability (nuclei count vs DMSO), 5 days (fraction); higher = more cells survive
Motesanib + Alpelisib = compound: CC1(C)CNc2cc(NC(=O)c3cccnc3NCc3ccncc3)ccc21 [Motesanib] + Cc1nc(NC(=O)N2CCC[C@H]2C(N)=O)sc1-c1ccnc(C(C)(C)C(F)(F)F)c1 [Alpelisib] (partner 2 µM)
Method in brief: (§1)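 Five library-drug doses in √10 steps were combined with a fixed anchor-drug dose, or a single drug was given alone, by pin tool to lung cancer cell lines in 1536-well plates the day after seeding. Nuclei were stained and counted after 5 days. Relative viability is the nuclei count in treated wells over that in vehicle wells, taken as the median of duplicate plates.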

Motesanib + Olaparib = compound: CC1(C)CNc2cc(NC(=O)c3cccnc3NCc3ccncc3)ccc21 [Motesanib] + O=C(c1cc(Cc2n[nH]c(=O)c3ccccc23)ccc1F)N1CCN(C(=O)C2CC2)CC1 [Olaparib] (partner 8 µM)
Method in brief: as §1

[1] = compound: C[C@@]1(C(=O)Nc2ccc(F)nc2)CCCN1c1nc(Nc2cc(C3CC3)n[nH]2)c2cccn2n1 + CC(C)C[C@H](NC(=O)[C@H](Cc1ccccc1)NC(=O)c1cnccn1)B(O)O [Bortezomib] (partner 0.002 µM)
Method in brief: as §1

[2] = compound: C[C@@]1(C(=O)Nc2ccc(F)nc2)CCCN1c1nc(Nc2cc(C3CC3)n[nH]2)c2cccn2n1 + C[C@]1(O)C[C@@H](c2nc(-c3ccc4ccc(-c5ccccc5)nc4c3)c3c(N)nccn32)C1 [Linsitinib] (partner 1 µM)
Method in brief: as §1

Question: With NCI-H2009 as the cell line, how does the relative viability (Motesanib + Alpelisib; first compound 0.01 µM) read?
Answer: 1.15

Question: And the relative viability (Motesanib + Alpelisib; first compound 0.03162 µM)?
Answer: 1.18

Question: And the relative viability (Motesanib + Alpelisib; first compound 0.1 µM)?
Answer: 1.17

Question: And the relative viability (Motesanib + Alpelisib; first compound 0.3162 µM)?
Answer: 1.19

Question: What about the relative viability (Motesanib + Alpelisib; first compound 1 µM) of the same cell line?
Answer: 1.15

Question: What about the relative viability (Motesanib + Olaparib; first compound 0.01 µM) of the same cell line?
Answer: 0.717

Question: What about the relative viability (Motesanib + Olaparib; first compound 0.03162 µM) of the same cell line?
Answer: 0.667

Question: And the relative viability (Motesanib + Olaparib; first compound 0.1 µM)?
Answer: 0.693

Question: And the relative viability (Motesanib + Olaparib; first compound 0.3162 µM)?
Answer: 0.646

Question: What about the relative viability (Motesanib + Olaparib; first compound 1 µM) of the same cell line?
Answer: 0.682

Question: And the relative viability ([1]; first compound 0.04 µM)?
Answer: 1.13

Question: And the relative viability ([1]; first compound 0.1265 µM)?
Answer: 1.17

Question: And the relative viability ([1]; first compound 0.4 µM)?
Answer: 0.931

Question: What about the relative viability ([1]; first compound 1.265 µM) of the same cell line?
Answer: 0.875

Question: And the relative viability ([2]; first compound 0.04 µM)?
Answer: 1.2

Question: And the relative viability ([2]; first compound 0.1265 µM)?
Answer: 1.2

Question: What about the relative viability ([2]; first compound 0.4 µM) of the same cell line?
Answer: 1.13

Question: And the relative viability ([2]; first compound 1.265 µM)?
Answer: 1.19
